Laboratory results: ChEMBL document CHEMBL1135233, “Cytotoxic, antifouling bromotyramines: a synthetic study on simple marine natural products and Their analogues” (Bioorg Med Chem Lett, 2002)
Converted amounts (≈) assume the structure as drawn.

What was measured:
Amphibalanus amphitrite = test: Antifouling activity of compound against Balanus amphitrite expressed by inhibition of settlement of barnacle cyprids; format: functional
MCF7 = test: Tested for growth inhibition against human MCF-7 breast cancer cell line at 100 uM; format: functional
NCI-H460 [1] = test: Tested for growth inhibition against human NCI-H460 lung cancer cell line at 100 uM; format: functional
SF-268 = test: Tested for growth inhibition against human SF-268 CNS cancer cell line at 100 uM; format: functional
CCRF-CEM = test: Tested for the cytotoxicity against CCRF-CEM leukemia cell line […]; format: functional; details: Homo sapiens
Hs-578T = test: Tested for the cytotoxicity against Hs 578.T breast cancer cell line; format: functional; details: Homo sapiens
NCI-H226 = test: Tested for the cytotoxicity against NCI-H226 lung cancer cell line […]; format: functional; details: Homo sapiens
SW-620 = test: Tested for the cytotoxicity against SW-620 colon cancer cell line […]; format: functional; details: Homo sapiens
[2] = Tested for the lethality dose against barnacle cyprids of Balanus amphitrite; details: Amphibalanus amphitrite; read-out: LD50 (the source's name)
NCI-H460 [3] = test: Tested for the cytotoxicity against NCI-H460 lung cancer cell line […]; format: functional; details: Homo sapiens
P388 = test: Tested for the inhibition against P388 murine leukemia cell; format: functional, cell-based; details: Mus musculus

SMILES	EC50 (Amphibalanus amphitrite) [µg/mL]	Growth (MCF7) [%]	Growth (NCI-H460 [1]) [%]	Growth (SF-268) [%]	GI50 (CCRF-CEM) [nM]	GI50 (Hs-578T) [nM]	GI50 (NCI-H226) [nM]	GI50 (SW-620) [nM]	LC50 [2] [µg/mL]	GI50 (NCI-H460 [3]) [nM]	IC50 (P388) [µg/mL]
NCCOc1c(Br)cc(CCN)cc1Br	0.8 (≈ 2.37 µM)	39	70	70							
COc1c(Br)cc(CCN)cc1Br	0.07 (≈ 0.227 µM)	8	53	16	< 10	200	< 10	< 10	0.2 (≈ 0.647 µM)		
NCCCOc1ccc(CCN)cc1	> 50	104	120	120							
NCCCOc1c(Cl)cc(CCN)cc1Cl	33 (≈ 125 µM)	-53	93	85							
NCCCCOc1c(Br)cc(CCN)cc1Br	6 (≈ 16.4 µM)	19	25	50							
CCCCCCCC(=O)NCCc1cc(Br)c(OC)c(Br)c1	0.2 (≈ 0.46 µM)	-74	1	-68	400				1 (≈ 2.3 µM)		
CC(=O)NCCc1cc(Br)c(O)c(Br)c1		88	105	84							
CCCCCCCCNCCc1cc(Br)c(OC)c(Br)c1	0.008 (≈ 0.019 µM)	-82	-83	-84					0.03 (≈ 0.0712 µM)	50	
N#CC(=O)NCCCOc1c(Br)cc(CCN)cc1Br [CERATINAMINE]		7	82	39							
NCCCOc1c(Br)cc(CCN)cc1Br [MOLOKA'IAMINE]	5 (≈ 14.2 µM)	38	68	62							2.1 (≈ 5.96 µM)
